# Read-outs that look alike come from different tables or passages of the source.
# How the values were obtained:
# E. coli (BL21 DE3) = test: Minimal inhibitory concentration (MIC), broth microdilution, E. coli; format: cell-based; conditions: for MIC: Escherichia coli, read-out: MIC E. coli
# Description: (§1) The minimal inhibitory concentration (MIC) and minimal bactericidal concentration (MBC) by broth microdilution assays in 96-well plates to determine antimicrobial activity of selected agents against Gram-positive and Gram-negative bacteria
# (§2) Antimicrobial materials: In a typical experiment, the synthesized polymers were prepared for antimicrobial assays as described for the kinetic assays in Example 4(A), except as indicated in Tables 7-10 and 12.
# (§3) Mueller Hinton broth (MHB): A sterile broth is prepared with 4.50 g Mueller Hinton base (Hardy Diagnostics) in 200 mL deionized water. The broth is cooled to room temperature after being autoclaved and stored at 4° C. until use.
# (§4) Propagation of bacterial cells: Typically, 500 μL aliquots of S. aureus (ATCC® 25923™) or E. coli (BL21 DE3) cells are used to inoculate 5 mL of Mueller Hinton broth. The inoculum is shaken at 37° C. and 240 rpm for 6 h. Then, 500 μL aliquots are transferred to individual vessels, flash-frozen in liquid nitrogen, and stored as pre-starter cultures at −20° C. until use.
# (§5) Growth of bacterial cells: A 500 μL pre-starter culture is used to inoculate 5 mL of Mueller Hinton broth at 37° C. After 5 h of shaking at 240 rpm, a 500 μL of the inoculum is diluted to 20 mL with sterile MHB, followed by three successive 1:10 dilutions of 1000 μL of the resulting solutions into 10 mL MHB. Subsequently, 50 μL of the most dilute cell suspension is spread on a Mueller-Hinton agar plate, and incubated at 37° C. After 24 h, selected colonies are re-suspended in 4 mL of Mueller-Hinton broth and diluted until their OD625 value matched that of a 0.5 McFarland standard at 37° C. to account for a cell concentration of 1×10^8 CFU/mL. Typically, a 50 μL aliquot of the cell suspension is diluted into 10 mL of Mueller-Hinton broth to obtain a stock solution of S. aureus cells at a concentration of 5×10^5 CFU/mL. Typically, two separate inoculums are prepared immediately prior to use.
# (§6) Preparation of broth microdilution assays and data recording: Following standard procedures for conducting broth microdilution assays, 100 μL aliquots of Mueller-Hinton broth are added to each well. Subsequently, a 100 μL aliquot of the sterile antimicrobial agent solution is added in the first column of the plate and then diluted in a serial manner by subsequent transfers of 100 μL aliquots over the first 10 columns. […] Typically, the absorbance in each well is then monitored at 595 nm and 37° C. over a 16 h period in 2 h intervals.
# (§7) Data analysis: The obtained absorbance data are plotted against time to determine the steady state point of cell growth. The change of absorbance at this time for wells with and without antimicrobial agent is then plotted against the concentration of the antimicrobial agent. […]
# S. aureus (ATCC 25923) = test: Minimal inhibitory concentration (MIC), broth microdilution, S. aureus; format: cell-based; conditions: for MIC: Staphylococcus aureus
# Description: as §1, §2, §3, §4, §5, §6, §7
# [1] = Coordination to binuclear complex Cu2bpdpo, isothermal titration calorimetry; format: binding; conditions: coordination to the metal complex; pH 10.50, 10° C.
# Description: The coordination of galactonoamidine 1 to binuclear complexes was already evaluated in part and included Cu2bpdpo (5), a nonpolymerizable analogue of 3 (FIG. 15).
# B21 DE3 E. coli cells = test: Growth of E. coli cells in petridish assays with Müller-Hinton/agar media; format: cell-based; conditions: 37° C., 12 h
# Description: Sterile Müller-Hinton/Agar (MH) media. 4.54 g Müller-Hinton media and 5.07 g agar were dissolved in 200 mL deionized water. The media were autoclaved and stored at 4° C. until use.
# E. coli cell culture. A 100 μL aliquot of B21 DE3 E. coli cells, purchased from New England Biolabs, were added to 1 mL of sterile Luria-Bertani broth; the culture was incubated for 2 hours at 37° C. Then, a 100 μL aliquot of this culture was diluted by serial dilution 200,000-fold with sterile LB (Miller's) media yielding 10 mL of a stock solution of the cell culture.
# Stock solution of low molecular weight complex Cu2bpdpo (catalyst 1). 5.28 mg of Cu2bpdpo were dissolved in 5 mL of 50 mM HEPES buffer at pH 7.00; a 1000 μl aliquot of the resulting solution was further diluted into 10 mL yielding a 160.3 μM stock solution of Cu2bpdpo.
# Stock solution of Hen Egg-white lysozyme (catalyst 2). 11.53 mg of lyophilized lysozyme purchased from AMRESCO were dissolved in 5 mL of 50 mM HEPES buffer at pH 7.00 and used as a 161.1 μM stock solution.
# Stock solutions of microgels (catalysts 3-5). All microgel stock solutions were treated as described above, but only diluted 1:5 during activation and then sterilized prior to use for these experiments. The stock solution for ^Cu2LPgal (40%) is 112.3 μM, for ^Cu2LPgal (60%) 145.6 μM and for ^Cu2LP1 (60%) 153.6 μM.
# Plate preparation. […]
# [2] = Stability of galactonoamidine against hydrolysis under buffer and temperature conditions (HPLC, NMR); format: physicochemical
# Description: The instrumentation, reagents, and materials for this study were recently described. [Sharma, B. et al. Biomacromolecules 2018, 19, 1164-1174; Sharma, B. et al. […]. 2018, 8, 7710-7718] The computational analysis was performed with PQSmol as reported. [Sharma Biomacromolecules 2018; […]. et al. Dalton Trans. 2016, 45, 15203-15210; Becke, A. D. J. Chem. Phys. 1993, 98, 5648-5652; Lee, C. et al. Phys. Rev. B: Condens. Matter Mater. Phys. 1988, 37, 785-789; PQSmol, Version 4.1; Parallel Quantum Solutions: […]. et al. J. Chem. […] [[…]. et al. Bioorg. Med. Chem. 2016, 24, 3371-3377] Glyconoamidines are prone to nucleophilic attack at the anomeric C atom and subsequent hydrolysis in alkaline solution. Various glyconoamidines have been previously synthesized. [Bleriot, Y. et al. Bioorg. Med. Chem. Lett. 1995, 5, 2655-60; Bleriot, Y. et al. Tetrahedron Lett. 1994, 35, 1867-70; Heck, M.-P. et al. J. Am. Chem. Soc. 2004, 126, 1971-1979; […]. Res. 1996, 29, 340-347] We evaluated the hydrolysis of galactonoamidine 1 under various buffer and temperature conditions to ensure its stability under polymerization conditions. […] The stability of 1 was also observed at 0 and 10° C. over a 3 h time period in 5 mM CAPS buffer solution at pH 10.50. Buffer solutions with similar molarity at lower pH values behave likewise (FIG. 13).
# [3] = format: biochemical; conditions: for Km / kcat: substrate β-9
# Description: 2.8.4. Catalytic Glycoside Hydrolysis. […]
# Substrate Stock Solution. […] As the glycoside precipitates in this concentration from aqueous solutions at ambient temperature, the resulting solution was kept above 50° C. until use.
# Catalyst Stock Solutions. The microgel dispersions were used as described above. […]
# Kinetic Assay. In a typical experiment, 20 μL of an activated microgel dispersion were added to aliquots of the glycoside stock solution (0-100 μL) and corresponding amounts of buffer solution, keeping the nominal volume of the resulting solutions at 200 μL. […] The product formation was read in 20 min intervals after orbital shaking of the solutions over 5 s each. All experiments were performed in duplicate or triplicate.
# Data Analysis. The collected fluorescence intensity was plotted over time, and a linear fit applied to the data collected between 140 and 480 min. The calculated rates of the reaction were then corrected by the corresponding apparent extinction coefficient and catalyst amount, averaged from two independent experiments, and plotted over the molar substrate concentration. Nonlinear regression of the resulting hyperbolic data yielded the rate constant kcat and the apparent substrate affinity KM. The rate constant of the uncatalyzed reaction knon was determined by applying a linear fit to the corrected rates of the collected data obtained in absence of catalyst. Data obtained in the presence of metal-ion free control polymer ^LPgal and from control polymer ^Cu2LPEG were treated likewise to estimate their catalytic efficiency.
# The turbidity of the aqueous microgel dispersions under consideration here increases visibly to the naked eye with the crosslinking content from 5 to 80 mol % EGDMA. As a consequence, the apparent extinction coefficient (εapp) was determined for each microgel under the respective assay conditions prior to analysis of related spectroscopic data. […] (FIG. 9). [Chen, R. F Anal. Lett. 1968, 1(7), 423-428] […] [Striegler 2010] and used here to establish catalytic activity of the newly synthesized crosslinked microgels. The assay was developed in a 96-well plate format to allow fast catalyst screening under various reaction conditions, including lower pH values in future efforts.
# Likewise, a linear correlation between the concentration of the low molecular weight complex Cu2bpdpo (2) and the product formation of the glycoside hydrolysis was observed when the catalyst was used in concentrations up to 12 μM under assay conditions. With a fast screening assay on hand, the hydrolysis of glycoside 6 was evaluated with two different microgel catalysts at 60% crosslinking content: a polymer […] prepared in the presence of galactose and its metal-free, nonactivated analogue ^LPgal. Control experiments were conducted using a microgel ^Cu2LPEG that has the same crosslinking content as those polymers above, but is prepared in the presence of ethylene glycol instead of galactose. Additionally, hydrolysis of 6 was followed in the presence of low molecular weight complex Cu2bpdpo (2) and in the absence of catalyst in the buffer solution itself. The resulting hyperbolic data for the glycoside hydrolyses were analyzed by applying the Michaelis-Menten model to obtain the rate of the reaction (kcat), the substrate affinity (KM), and the rate of the uncatalyzed reaction (knon) in aqueous buffer solution. The catalytic proficiency (kcat/(KM×knon), catalytic efficiency (kcat/KM), and acceleration of the reaction over the uncatalyzed background reaction (kcat/knon) were then calculated therefrom as described (Table 1, FIG. 11).
# Activated microgel catalysts were prepared as described. [Sharma Biomacromolecules 2018] Typical stock solutions were as follows: Cu2bpdpo […] 2 mM, β-galactosidase as described [Sharma ACS Catal. 2018], 4-methylumbelliferyl α-D-galactopyranoside (α-9) 8-9 mM, and 4-methylumbelliferyl […] 3-4 mM. […]
# [4] = broth microdilution, 37° C., 2.5×10^5 CFU/mL
# [5] = ATCC25923, broth microdilution, 37° C., 2.5×10^5 CFU/mL, read-out: MIC S. aureus
# [6] = 5 mM aqueous HEPES buffer, pH 7.00, 37° C.
# [7] = 50 mM aqueous CAPS buffer, pH 10.50, 37° C.
# Description for physchem: As the dissociation constant of CEA in water is to the best of our knowledge not reported, we used the structural similarity between CEA and propionic acid to predict the pKa value of CEA as 4.9.42 We then projected the pKa value of a linear CEA-polymer as 5.6, and estimated the pKa value of a crosslinked microgel with 20 mol % of CEA as 10.1 following the method by Fisher and Kunin as described.43 In short, the apparent pKa values of crosslinked microgels were estimated from the pKa(m=1) value of a linear polymer of the monomeric acid as eq 2 pKa,app=pKa(m=1)(2−m) (eq 2) where m is the mol fraction of the monomeric acid. The dissociation constant of the linear polymer is estimated graphically by extrapolation.
molecule,measurement,setting,value
CN[C@H](CC(C)C)C(=O)N[C@H]1C(=O)N[C@@H](CC(N)=O)C(=O)N[C@H]2C(=O)N[C@H]3C(=O)N[C@H](C(=O)N[C@H](C(=O)O)c4cc(O)cc(O)c4-c4cc3ccc4O)[C@H](O)c3ccc(c(Cl)c3)Oc3cc2cc(c3O[C@@H]2O[C@H](CO)[C@@H](O)[C@H](O)[C@H]2O[C@H]2C[C@](C)(N)[C@H](O)[C@H](C)O2)Oc2ccc(cc2Cl)[C@H]1O [Vancomycin],MIC,E. coli (BL21 DE3),12.5 ± 0.2 µg/mL
same,MIC,"S. aureus (ATCC 25923); ATCC25923, read-out: MIC S. aureus",2.35 ± 0.14 µg/mL
O=C(N[C@H](CO)[C@H](O)c1ccc([N+](=O)[O-])cc1)C(Cl)Cl [Chloramphenicol],MIC,E. coli (BL21 DE3); [4],1.29 ± 0.04 µg/mL
same,MIC,S. aureus (ATCC 25923); [5],6.11 ± 0.02 µg/mL
"CCCCCCCCCCCCOS(=O)(=O)[O-].[Na+] [SDS, sodium dodecyl sulfate]",MIC,E. coli (BL21 DE3); [4],325 ± 11 µg/mL
same,MIC,S. aureus (ATCC 25923); [5],122 ± 1 µg/mL
Benzalkonium chloride,MIC E. coli,E. coli (BL21 DE3); [4],117 ± 1 µg/mL
same,MIC S. aureus,S. aureus (ATCC 25923); [4],4.32 ± 0.01 µg/mL
O=C[C@H](O)[C@@H](O)[C@@H](O)[C@H](O)CO [galactose],"pKa, gal",[1],2.70
lysozyme: Hen Egg-white lysozyme purchased from AMRESCO,inhibition of cell growth of E. coli on Müller-Hinton agar plates,B21 DE3 E. coli cells,inhibition of cell growth to a much smaller extend
Cc1ccc(CNC2=NC(CO)C(O)C(O)C2O)cc1 (stereo not drawn) [galactonoamidine 1],stability against hydrolysis,"[2]; 50 mM CAPS buffer, pH 10.50, 72° C.",instant hydrolysis
same,stability against hydrolysis,"[2]; buffer strength lowered to 5 mM, pH 10.50, 72° C.",slowed the hydrolysis
same,stability against hydrolysis,"[2]; pure deuterium oxide, 72° C., 3 h",stable
β-galactosidase: β-galactosidase (bovine liver),stabilization of enzyme-catalyzed hydrolysis relative to microgel ^Cu2LP1,[3]; pH 7,3.5×106 fold
same,catalytic proficiency relative to low molecular weight complex Cu2bpdpo,"[3]; substrate 6 / β-9, pH 10.50, CAPS, 37° C.",about 3250 fold
same,Km,[3]; [6],110 ± 220 µM
same,kcat,[3]; [6],4.6 ± 0.1 min⁻¹
same,Km,[3]; [7],540 ± 60 µM
same,kcat,[3]; [7],2.95 ± 0.09 10^−3 min^−1
same,catalytic proficiency higher than that of amidine-templated microgel ^Cu2LP1,"[3]; β-9, alkaline solution, pH 10.50",about 57 fold
"C=CC(=O)OCCC(=O)O [CEA monomer, carboxyethyl acrylate]",pKa,physchem,4.9

# Source: patent publication US12245591B2, “Templated antimicrobial microgels and methods of making and using the same” (THE BOARD OF TRUSTEES OF THE UNIVERSITY OF ARKANSAS, priority 2019, dated 2025)
